In patent US11708348B2, “Protease inhibitors for treatment of coronavirus infections” (The Scripps Research Institute, priority 2021, dated 2023):

Tested on: SARS-CoV-2 strain USA-WA1/2020
Assay: microbe, parasite or virus in culture
Assay type: cell-based
Conditions: Severe acute respiratory syndrome coronavirus 2, HeLa-ACE2, 24 h, HeLa-ACE2 cells, SARS-CoV-2 infection, 24 h; class symbols; read-out: EC50, uM (Hela)

| Compound | EC50 |
| --- | --- |
| CC(C)(C)C[C@H](NC(=O)C(=O)NC1CC(F)(F)C1)C(=O)N[C@@H](C[C@@H]1CCNC1=O)C(=O)COC(F)(F)F [Compound 179, Nl-(3,3-difluorocyclobutyl)-N2-((S)-4,4-dimethyl-1-oxo-1-(((S)-3-oxo-1-((S)-2-oxopyrrolidin-3-yl)-4-(trifluoromethoxy)butan-2-yl)amino)pentan-2-yl)oxalamide] | < 0.05 µM |
| CC(C)C[C@H](NC(=O)C(=O)NC1CC2(COC2)C1)C(=O)N[C@@H](C[C@@H]1CCNC1=O)C(=O)COC(F)(F)F [Compound 240, N1-((S)-4-methyl-1-oxo-1-(((S)-3-oxo-1-((S)-2-oxopyrrolidin-3-yl)-4-(trifluoromethoxy)butan-2-yl)amino)pentan-2-yl)-N2-(2-oxaspiro[3.3]heptan-6-yl)oxalamide] | 0.05 to 0.2 µM |
| C=CC[C@H](NC(=O)C(=O)Nc1ccccc1)C(=O)N[C@@H](C[C@@H]1CCNC1=O)C(=O)COc1c(F)c(F)cc(F)c1F [Compound 58, N1-((S)-1-oxo-1-(((S)-3-oxo-1-((S)-2-oxopyrrolidin-3-yl)-4-(2,3,5,6-tetrafluorophenoxy)butan-2-yl)amino)pent-4-en-2-yl)-N2-phenyloxalamide] | 0.2 to 0.5 µM |
| CC(C)C[C@H](NC(=O)C(=O)Nc1ccccc1F)C(=O)N[C@@H](C[C@@H]1CCCNC1=O)C(=O)COc1c(F)c(F)cc(F)c1F [Compound 129, N1-(2-fluorophenyl)-N2-((S)-4-methyl-1-oxo-1-(((S)-3-oxo-1-((S)-2-oxopiperidin-3-yl)-4-(2,3,5,6-tetrafluorophenoxy)butan-2-yl)amino)pentan-2-yl)oxalamide] | < 0.05 µM |
| CC(C)C[C@H](NC(=O)C(=O)Nc1ccccc1Cc1ccccc1)C(=O)N[C@@H](C[C@@H]1CCNC1=O)C(=O)COc1c(F)c(F)cc(F)c1F [Compound 57, N1-(2-benzylphenyl)-N2-((S)-4-methyl-1-oxo-1-(((S)-3-oxo-1-((S)-2-oxopyrrolidin-3-yl)-4-(2,3,5,6-tetrafluorophenoxy)butan-2-yl)amino)pentan-2-yl)oxalamide] | 0.2 to 0.5 µM |
| O=C(Nc1ccccc1Cl)C(=O)NC(CC1CCOCC1)C(=O)N[C@@H](C[C@@H]1CCNC1=O)C(=O)COc1c(F)c(F)cc(F)c1F (stereo partly drawn) [Compound 134, N1-(2-chlorophenyl)-N2-(1-oxo-1-(((S)-3-oxo-1-((S)-2-oxopyrrolidin-3-yl)-4-(2,3,5,6-tetrafluorophenoxy)butan-2-yl)amino)-3-(tetrahydro-2H-pyran-4-yl)propan-2-yl)oxalamide] | < 0.05 µM |
| O=C1NCC[C@H]1C[C@H](NC(=O)[C@@H]1CC2(CC2)CN1C(=O)[C@H](O)CF)C(=O)COC(F)(F)F [Compound 397, (S)-5-((S)-3-fluoro-2-hydroxypropanoyl)-N-((S)-3-oxo-1-((S)-2-oxopyrrolidin-3-yl)-4-(trifluoromethoxy)butan-2-yl)-5-azaspiro[2.4]heptane-6-carboxamide] | 0.05 to 0.2 µM |

Same assay, conditions: Severe acute respiratory syndrome coronavirus 2, HeLa-ACE2, 24 h, HeLa-ACE2 cells, SARS-CoV-2 infection, 24 h; given as bound; read-out: EC50, uM (Hela)

| Compound | EC50 |
| --- | --- |
| C[C@@]12C[C@@H](C(=O)N[C@@H](C[C@@H]3CCNC3=O)C(=O)COC(F)(F)F)N(C(=O)C(=O)Nc3ccccc3F)[C@@H]1C2 [Compound 581, (1R, 3S, 5R)-2-(2-((2-fluorophenyl)amino)-2-oxoacetyl)-5-methyl-N-((S)-3-oxo-1-((S)-2-oxopyrrolidin-3-yl)-4-(trifluoromethoxy)butan-2-yl)-2-azabicyclo-[3.1.0]hexane-3-carboxamide] | > 1 µM |
| CC1(NC(=O)C(=O)N2C[C@@H]3CCC[C@@H]3[C@H]2C(=O)N[C@H](C[C@@H]2CCNC2=O)C(=O)COC(F)(F)F)CC1 [Compound 495, (1S,3aR,6aS)-2-(2-((1-methylcyclopropyl)-amino)-2-oxoacetyl)-N-((R)-3-oxo-1-((S)-2-oxopyrrolidin-3-yl)-4-(trifluoromethoxy)butan-2-yl)octahydrocyclo-penta[c]pyrrole-1-carboxamide] | > 1 µM |

Same assay, conditions: Severe acute respiratory syndrome coronavirus 2, HeLa-ACE2, 24 h, HeLa-ACE2 cells, SARS-CoV-2 infection, 24 h; read-out: EC50, uM (Hela)

| Compound | EC50 |
| --- | --- |
| CC(C)C(F)(F)CC(=O)N1CC2(CC2)C[C@H]1C(=O)N[C@@H](C[C@@H]1CCNC1=O)C(=O)COC(F)(F)F [Compound 712, (S)-5-(3,3-difluoro-4-methylpentanoyl)-N-((S)-3-oxo-1-((S)-2-oxopyrrolidin-3-yl)-4-(trifluoromethoxy)butan-2-yl)-5-azaspiro[2.4]heptane-6-carboxamide] | < 0.05 µM |
| CC(C)C[C@H](C)C(=O)N1CC2(CC2)C[C@H]1C(=O)N[C@@H](C[C@@H]1CCNC1=O)C(=O)COC(F)(F)F [Compound 748, (S)-5-((S)-2,4-dimethylpentanoyl)-N-((S)-3-oxo-1-((S)-2-oxopyrrolidin-3-yl)-4-(trifluoromethoxy)butan-2-yl)-5-azaspiro[2.4]heptane-6-carboxamide] | 0.05 to 0.2 µM |
| C=CCCC(=O)N1CC2(CC2)C[C@H]1C(=O)N[C@@H](C[C@@H]1CCNC1=O)C(=O)COC(F)(F)F [Compound 690, (S)-N-((S)-3-oxo-1-((S)-2-oxopyrrolidin-3-yl)-4-(trifluoromethoxy)butan-2-yl)-5-(pent-4-enoyl)-5-azaspiro[2.4]heptane-6-carboxamide] | 0.05 to 0.2 µM |
| C[C@H](C[C@@H](O)C(=O)N1CC2(CC2)C[C@H]1C(=O)N[C@@H](C[C@@H]1CCNC1=O)C(=O)COC(F)(F)F)C(F)(F)F (single isomer, unassigned) [Compound 426] | < 0.05 µM |
| CC(C)CC(=O)N1CC2(CC2)C[C@H]1C(=O)N[C@@H](C[C@@H]1CCNC1=O)C(=O)COC(F)(F)F [Compound 707, (S)-5-(3-methylbutanoyl)-N-((S)-3-oxo-1-((S)-2-oxopyrrolidin-3-yl)-4-(trifluoromethoxy)butan-2-yl)-5-azaspiro[2.4]heptane-6-carboxamide] | 0.05 to 0.2 µM |
| CN[C@H](CC(C)C)C(=O)N1CC2(CC2)C[C@H]1C(=O)N[C@@H](C[C@@H]1CCNC1=O)C(=O)COC(F)(F)F [Compound 660, (S)-5-(methyl-D-leucyl)-N-((S)-3-oxo-1-((S)-2-oxopyrrolidin-3-yl)-4-(trifluoromethoxy)butan-2-yl)-5-azaspiro[2.4]heptane-6-carboxamide] | 0.05 to 0.2 µM |
| O=C(Nc1ccccc1F)C(=O)N1CC[C@H]1C(=O)N[C@@H](C[C@@H]1CCNC1=O)C(=O)COC(F)(F)F [Compound 583, (S)-1-(2-((2-fluoro-phenyl)amino)-2-oxoacetyl)-N-((S)-3-oxo-1-((S)-2-oxopyrrolidin-3-yl)-4-(trifluoromethoxy)butan-2-yl)azetidine-2-carboxamide] | 0.05 to 0.2 µM |
| O=C1NCC[C@H]1C[C@H](NC(=O)[C@@H]1CC2(CC2)CN1C(=O)C1(O)CCC1)C(=O)COC(F)(F)F [Compound 422, (S)-5-(1-hydroxycyclobutane-1-carbonyl)-N-((S)-3-oxo-1-((S)-2-oxo-pyrrolidin-3-yl)-4-(trifluoromethoxy)butan-2-yl)-5-azaspiro[2.4]heptane-6-carboxamide] | 0.05 to 0.2 µM |
| CC(C)C[C@@H](O)C(=O)N[C@@H](CC(C)C)C(=O)N[C@@H](C[C@@H]1CCNC1=O)C(=O)COC(F)(F)F [Compound 767, (R)-2-hydroxy-4-methyl-N-((S)-4-methyl-1-oxo-1-(((S)-3-oxo-1-((S)-2-oxopyrrolidin-3-yl)-4-(trifluoromethoxy)butan-2-yl)amino)pentan-2-yl)pentanamide] | 0.2 to 0.5 µM |
| O=C(Nc1cccc(OC(F)(F)F)c1F)C(=O)N1CC2(CC2)C[C@H]1C(=O)N[C@@H](C[C@@H]1CCNC1=O)C(=O)COC(F)(F)F [Compound 600, (S)-5-(2-((2-fluoro-3-(trifluoromethoxy)-phenyl)amino)-2-oxoacetyl)-N-((S)-3-oxo-1-((S)-2-oxopyrrolidin-3-yl)-4-(trifluoromethoxy)-butan-2-yl)-5-azaspiro[2.4]heptane-6-carboxamide] | < 0.05 µM |
| CC1(C)[C@@H]2[C@@H](C(=O)N[C@@H](C[C@@H]3CCNC3=O)C(=O)COC(F)(F)F)N(C(=O)c3cc(F)cc(F)c3O)C[C@@H]21 [Compound 594, (1R,2S,5S)-3-(3,5-difluoro-2-hydroxybenzoyl)-6,6-dimethyl-N-((S)-3-oxo-1-((S)-2-oxopyrrolidin-3-yl)-4-(trifluoromethoxy)butan-2-yl)-3-azabicyclo-[3.1.0]hexane-2-carboxamide] | 0.05 to 0.2 µM |
| O=C(N[C@@H](CC1CC1)C(=O)N[C@@H](C[C@@H]1CCNC1=O)C(=O)COC(F)(F)F)C(=O)NC12CC(F)(C1)C2 [Compound 509, N1-((S)-3-cyclopropyl-1-oxo-1-(((S)-3-oxo-1-((S)-2-oxopyrrolidin-3-yl)-4-(trifluoromethoxy)butan-2-yl)amino)propan-2-yl)-N2-(3-fluorobicyclo[1.1.1]-pentan-1-yl)oxalamide] | < 0.05 µM |
| CC1(NC(=O)C(=O)N2CC3(CC3)C[C@H]2C(=O)N[C@@H](C[C@@H]2CCNC2=O)C(=O)COC(F)(F)F)CC1 [Compound 571, (S)-5-(2-((l-methylcyclopropyl)-amino)-2-oxoacetyl)-N-((S)-3-oxo-1-((S)-2-oxopyrrolidin-3-yl)-4-(trifluoromethoxy)butan-2-yl)-5-azaspiro[2.4]-heptane-6-carboxamide] | 0.05 to 0.2 µM |

Same assay, conditions: Severe acute respiratory syndrome coronavirus 2, HeLa-ACE2, 24 h; […]; cells given as a bound; read-out: EC50, uM (Hela)

| Compound | EC50 |
| --- | --- |
| CC(=O)N1CCC(NC(=O)C(=O)N[C@@H](CC(C)C)C(=O)N[C@@H](C[C@@H]2CCNC2=O)C(=O)COc2c(F)c(F)cc(F)c2F)CC1 [Compound 140, Nl-(l-acetylpiperidin-4-yl)-N2-((S)-4-methyl-1-oxo-1-(((S)-3-oxo-1-((S)-2-oxopyrrolidin-3-yl)-4-(2,3,5,6-tetrafluorophenoxy)butan-2-yl)amino)pentan-2-yl)oxalamide] | > 1 µM |

Same assay, conditions: Severe acute respiratory syndrome coronavirus 2, HeLa-ACE2, 24 h; read-out: EC50, uM (Hela)

| Compound | EC50 |
| --- | --- |
| O=C(Cc1ccccc1)O[C@@H](C(=O)N1C[C@@H]2CCC[C@@H]2[C@H]1C(=O)N[C@@H](C[C@@H]1CCNC1=O)C(=O)COC(F)(F)F)c1ccccc1F [Compound 622, (R)-1-(2-fluorophenyl)-2-oxo-2-((1S,3aR,6aS)-1-(((S)-3-oxo-1-((S)-2-oxopyrrolidin-3-yl)-4-(trifluoromethoxy)butan-2-yl)carbamoyl)hexahydrocyclopenta[c]-pyrrol-2(1H)-yl)ethyl 2-phenylacetate] | 0.05 to 0.2 µM |
